Data from US20100210539A1, “USE OF PEPTIDE LL-37 AS A THERAPEUTIC AGENT” (priority 2007, published 2010).

System: drug-resistant Mycobacterium tuberculosis
Details: peptide 10 micrograms per ml, seven days

With `CC[C@H](C)[C@H](NC(=O)[C@H](CCCCN)NC(=O)[C@H](CCC(=O)O)NC(=O)[C@H](CCCCN)NC(=O)[C@H](CO)NC(=O)[C@H](CCCCN)NC(=O)[C@H](CCCNC(=N)N)NC(=O)[C@H](Cc1ccccc1)NC(=O)[C@H](Cc1ccccc1)NC(=O)[C@H](CC(=O)O)NC(=O)CNC(=O)[C@H](CC(C)C)NC(=O)[C@@H](N)CC(C)C)C(=O)NCC(=O)N[C@@H](CCCCN)C(=O)N[C@@H](CCC(=O)O)C(=O)N[C@@H](Cc1ccccc1)C(=O)N[C@@H](CCCCN)C(=O)N[C@@H](CCCNC(=N)N)C(=O)N[C@H](C(=O)N[C@H](C(=O)N[C@@H](CCC(N)=O)C(=O)N[C@@H](CCCNC(=N)N)C(=O)N[C@H](C(=O)N[C@@H](CCCCN)C(=O)N[C@@H](CC(=O)O)C(=O)N[C@@H](Cc1ccccc1)C(=O)N[C@@H](CC(C)C)C(=O)N[C@@H](CCCNC(=N)N)C(=O)N[C@@H](CC(N)=O)C(=O)N[C@@H](CC(C)C)C(=O)N[C@H](C(=O)N1CCC[C@H]1C(=O)N[C@@H](CCCNC(=N)N)C(=O)N[C@H](C(=O)N[C@@H](CCC(=O)O)C(=O)N[C@@H](CO)C(N)=O)[C@@H](C)O)C(C)C)[C@@H](C)CC)C(C)C)[C@@H](C)CC` [LL-37] the “% inhibition” value was 0.0%.
